A short description of this data set: Single-dose, randomized, two-way crossover bioequivalence/pharmacokinetic studies A-D under fed conditions (plasma LC-MS/MS, NCA). Particulars: reference formulation, Study C, metformin 850 mg, empagliflozin […] mg, n 35.

Experimental: To ensure standardization, all subjects underwent at least 10 h of overnight pre-dose fasting on the study day. Participants then received a standardized high-fat, high-calorie breakfast (approximately 800 kcal). Dosing was administered 30 min after the start of this meal, followed by the intake of a 10% glucose solution (250 mL). The glucose solution was administered as a prophylactic measure to reduce the risk of hypoglycemia. It was not intended to simulate fed-state caloric intake beyond the standardized meal, in accordance with institutional clinical practice.
Each study period included a one-day treatment followed by a 14-day washout period. […] All adverse events, including duration, severity, causality, and outcomes, were strictly monitored and recorded by the principal investigator and medical staff throughout the study.
Promptly after collection, the samples were centrifuged at 3500 rpm for 10 min at 4 °C to separate the plasma. The harvested plasma was then transferred into appropriately labeled cryovials and immediately cryopreserved at −70 ± 15 °C until bioanalytical quantification. […]
The primary pharmacokinetic parameters evaluated to establish bioequivalence were the maximum observed plasma concentration (Cmax) and the area under the concentration–time curve from time zero to the last measurable concentration (AUC0-t). […]

On to `CN(C)C(=N)N=C(N)N` [Metformin], for which the “AUC0-t (mean)” value is listed as 13,288.1 ng⋅h/mL.

(Values after publication PMC13516501 (Pharmaceuticals, 2026).)
